One data set in a line: Turbidimetric solubility. Type of data set: physicochemical. The conditions noted are these: aqueous buffer, kinetic from dmso stock. The text has this:
The solubility of a compound is an important factor in achieving a desired concentration of drug in systemic circulation for the anticipated pharmacological response. Low aqueous solubility is a problem encountered with formulation development of new chemical entities and to be absorbed a drug must be present in the form of solution at the site of absorption. The kinetic solubility of a compound may be measured using a turbidimetric solubility assay, the data from which may also be used in conjunction with Caco-2 permeability data to predict dose dependent human intestinal absorption.
Turbidimetric solubility: Test compound solution prepared in DMSO diluted into aqueous buffer. Turbidimetry is used as the end-point by measuring absorbance at 620 nm.

Another data set addresses Endogenous USP30 (Homo sapiens (Human), UniProt Q70CQ3). The experiment in a line: USP30 endogenous cellular target engagement assay (Cell TE WB). The conditions noted are these: Hela cells stably overexpressing YFP-Parkin, 1 hour. Type of data set: cell-based. The text has this:
(§1) USP30 is a transmembrane protein located in the outer membrane of mitochondria, which are energy-producing organelles present inside cells. […] The USP30 cellular western blot (WB) assay described herein aims to test the activity of compounds against USP30 in cells using an irreversible activity probe to monitor USP30 activity. Analogously to the cellular western blot assay, target engagement assessment (ex vivo) may be carried out in either brain or kidney tissue samples from compound-dosed animals. To extend target binding knowledge to downstream pharmacodynamics, assessment of TOM20 (an outer mitochondrial membrane protein) ubiquitylation may be made.
Hela cells stably overexpressing YFP-Parkin were seeded into 6 well dishes. Once adhered, cells were treated with appropriate concentrations of test compounds or vehicle control for 1 hour at 37° C., 5% CO2. […] USP30 was detected using an anti-USP30 Sheep S746D antibody (MRC PPU Reagents and Services) and a rabbit anti sheep secondary IgG (H+L) horseradish peroxidase conjugated (Thermo #31480) and visualised using ECL reagent (GE #RPN2109) on a GE LAS4000 imager. Target engagement was measured by quantitation of the bands corresponding to USP30 and USP30 bound to the Ub-VME probe and expression of this proportion compared to vehicle treated control.

Data set [1] is described as follows: Brain homogenate free fraction by equilibrium dialysis. Type of data set: in vitro ADME. The conditions noted are these: mouse brain homogenate; read-out: Binding Mouse Brain fu,br. The text has this:
Brain fu,br: The free fraction of a compound in brain homogenate preparation determined by in vitro equilibrium dialysis.

A short description of a further data set: Log D. Type of data set: physicochemical. The conditions noted are these: pH 7.4; read-out: Log D measured at pH 7.4. The text has this:
log D: distribution co-efficient; lipophilicity measurement.

A short description of the next data set: Hepatocyte Cl human. The conditions noted are these: human hepatocytes. Format: in vitro ADME. As to the method: Hep Cl human: in vitro hepatocyte clearance in human cells.
(§2) Clu: in vitro clearance. Clu as defined here is the scaled clearance, in turn calculated from the intrinsic clearance. The intrinsic clearance is the predicted clearance due to hepatic metabolic reactions, determined from incubation of a compound in a hepatocyte preparation.

A further data set relates to TOM20 ubiquitylation. Briefly: TOM20-ubiquitylation assay. Format: cell-based, human.
Source text: as §1
Human cell lines can be challenged with mitochondrial depolarizing agents (ionophores (eg. CCCP, valinomycin), mitochondrial complex inhibitors (oligomycin, antimycin A)) to induce ubiquitylation of TOM20, which is then further promoted in the presence of USP30 inhibitors. TOM20 ubiquitylation is subsequently assessed through western blotting of the cell lysates, with TOM20 ubiquitylation adduct detection possible due to an 8 kDa molecule weight increase for each molecule of ubiquitin added, resulting in laddering of a TOM20 immunoreactive band. TOM20-ubiquitylation levels can be quantified using chemiluminescence densitometry of laddered immunoreactive bands.

Data set [2] is described as follows: Plasma free fraction by equilibrium dialysis. Type of data set: in vitro ADME. The conditions noted are these: mouse plasma; read-out: Binding Mouse Plasma fu,p. The text has this: Plasma fu,p: The free fraction of a compound in plasma preparation determined by in vitro equilibrium dialysis.
A further data set concerns the target Cathepsin K (Homo sapiens (Human), UniProt P43235). Briefly: Cathepsin K IC50. Format: biochemical.
The next data set has as its target Cathepsin L (Homo sapiens (Human), UniProt P07711). The experiment in a line: Cathepsin L IC50. Type of data set: biochemical.
Another data set in a line: PK mouse 10 mg/kg po. Format: in vivo. The conditions noted are these: for Unbound plasma Cmax/TOM20-Ub cell potency: 10 mg/kg po dose - mouse; for Oral F: mouse, 10 mg/kg. The text has this: Oral F: Oral bioavailability.
A further data set deals with UCHL1 (Homo sapiens (Human), UniProt P09936). The experiment in a line: UCHL1 DUB IC50. Type of data set: biochemical.
The next data set addresses Cathepsin S (Homo sapiens (Human), UniProt P25774). Briefly: Cathepsin S IC50. Type of data set: biochemical.
The next data set can be described thus: PK mouse 2 mg/kg iv. Type of data set: in vivo. The conditions noted are these: for Kp uu: brain and plasma (unbound), 2 mg/kg IV dose - mouse; for clearance: plasma, mouse, 2 mg/kg iv, read-out: Cl plasma. The text has this: Cl in vivo clearance: Pharmacokinetic measurement of the volume of plasma (or any matrix) from which a substance is completely removed per unit time.
Kpuu is the ratio of unbound drug in brain to unbound drug in plasma and may be indicative of potential for treating peripheral and/or CNS indications.

The test system of data set [3] is HCT116 human colorectal carcinoma cells. The experiment in a line: In vitro cytotoxicity (Cell Tox), alamarBlue. The conditions noted are these: 96-hour continual compound exposure. Type of data set: cell-based. The text has this:
There is also a need for compounds that have a favourable safety profile, which may be measured by a variety of standard in vitro and in vivo methods. A cell toxicity counter-screen may be used to assay the anti-proliferative/cytotoxic effect in a particular cell line (e.g. HCT116) by fluorometric detection of rezasurin (alamarBlue™) to resofurin in response to mitochondrial activity.
In Vitro Cytotoxicity (Cell Tox): Measured in HCT116 human colorectal carcinoma cells using alamarBlue™ as the assay endpoint. Compound cytotoxicity was measured over a period of 96-hour continual compound exposure.

The target of the next data set is Cathepsin B (Homo sapiens (Human), UniProt P07858). The experiment in a line: Cathepsin B IC50. Format: biochemical.
Another data set is described as follows: Hepatocyte Cl mouse. Format: in vitro ADME. The conditions noted are these: mouse hepatocytes. As to the method:
Hep Cl mouse: in vitro hepatocyte clearance in mouse cells.
as §2

≈ marks a conversion by molar mass, not a printed value.

Chain of Cathepsin K (P43235 115-329, species assumed): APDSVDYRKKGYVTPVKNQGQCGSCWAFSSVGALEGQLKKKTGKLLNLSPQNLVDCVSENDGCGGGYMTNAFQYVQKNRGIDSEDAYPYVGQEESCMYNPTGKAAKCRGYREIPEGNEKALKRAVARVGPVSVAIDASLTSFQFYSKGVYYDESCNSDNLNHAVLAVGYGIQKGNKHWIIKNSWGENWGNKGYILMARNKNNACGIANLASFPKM
Chain of UCHL1 (P09936 whole entry, species assumed): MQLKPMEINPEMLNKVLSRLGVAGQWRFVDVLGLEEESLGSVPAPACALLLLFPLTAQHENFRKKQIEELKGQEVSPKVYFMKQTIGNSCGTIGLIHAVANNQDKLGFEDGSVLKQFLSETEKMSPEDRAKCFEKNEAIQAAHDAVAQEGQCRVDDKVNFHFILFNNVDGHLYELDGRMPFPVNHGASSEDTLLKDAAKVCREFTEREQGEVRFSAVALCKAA
Chain of Endogenous USP30 (Q70CQ3 whole entry): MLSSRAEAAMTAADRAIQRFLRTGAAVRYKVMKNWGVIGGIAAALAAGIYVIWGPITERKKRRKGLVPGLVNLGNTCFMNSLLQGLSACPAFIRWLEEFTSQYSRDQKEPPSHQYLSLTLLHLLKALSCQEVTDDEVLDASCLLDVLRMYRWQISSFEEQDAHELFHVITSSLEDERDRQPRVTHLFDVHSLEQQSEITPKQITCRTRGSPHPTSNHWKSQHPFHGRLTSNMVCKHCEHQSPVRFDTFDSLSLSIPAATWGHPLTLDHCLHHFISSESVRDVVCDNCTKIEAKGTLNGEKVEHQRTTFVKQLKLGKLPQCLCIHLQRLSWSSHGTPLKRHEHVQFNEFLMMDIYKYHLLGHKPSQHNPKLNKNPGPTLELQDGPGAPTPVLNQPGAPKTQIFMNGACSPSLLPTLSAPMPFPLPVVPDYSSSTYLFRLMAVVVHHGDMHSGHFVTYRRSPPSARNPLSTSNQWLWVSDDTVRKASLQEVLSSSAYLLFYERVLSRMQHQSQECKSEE
Chain of Cathepsin S (P25774 115-331, species assumed): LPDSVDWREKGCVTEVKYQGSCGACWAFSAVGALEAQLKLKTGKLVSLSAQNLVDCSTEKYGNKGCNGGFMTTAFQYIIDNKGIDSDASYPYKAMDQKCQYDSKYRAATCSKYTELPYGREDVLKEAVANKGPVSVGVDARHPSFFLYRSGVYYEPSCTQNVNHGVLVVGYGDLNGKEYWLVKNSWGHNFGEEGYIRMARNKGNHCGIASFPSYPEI
Chain of Cathepsin L (P07711 114-333, species assumed): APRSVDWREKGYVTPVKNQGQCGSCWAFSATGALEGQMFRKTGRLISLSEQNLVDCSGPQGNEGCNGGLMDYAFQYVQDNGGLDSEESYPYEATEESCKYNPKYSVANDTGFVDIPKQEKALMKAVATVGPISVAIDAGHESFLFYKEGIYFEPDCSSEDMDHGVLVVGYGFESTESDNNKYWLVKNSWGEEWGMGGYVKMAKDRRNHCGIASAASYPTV

In turn, `C[C@@H]1C[C@@H](NC(=O)c2ncc(-c3cc(C#N)ccc3OC3CC3)o2)CN1C#N` [Example 1, 5-(5-cyano-2-cyclopropoxyphenyl)-N-((3R,5R)-1-cyano-5-methylpyrrolidin-3-yl)oxazole-2-carboxamide] displayed a solubility in the data set “Turbidimetric solubility” of 65 µM (≈ 24.5 µg/mL). For the same molecule, the EC50 on Endogenous USP30 is 0.002 µM; in data set [3] (Homo sapiens, HCT-116, 96 h) it was 23.8 µM. The fraction unbound came out at 0.06 in data set [1] and 0.09 in [2]. Moreover, the logD in “Log D” was 2.5. The “Hepatocyte Cl human Scaled Clu” value in the data set “Hepatocyte Cl human” amounted to 18.6 mL/min/kg. Also, in the data set with TOM20 ubiquitylation, the “TOM20-Ub 1.5-fold gain, Antimycin A/oligomycin mitophagy trigger EC1.5x” value amounted to 0.006 µM. For the same molecule, the IC50 against Cathepsin K was 10.5 µM; against Cathepsin L, 9.9 µM; on UCHL1, over 300 µM; on Cathepsin S, 54.4 µM; against Cathepsin B, 107 µM. For the same molecule, the “Unbound plasma Cmax/TOM20-Ub cell potency” value in “PK mouse 10 mg/kg po” is reported as 45. In addition, the “Oral F” value in the data set “PK mouse 10 mg/kg po” is on record as 37%. Also, the Kp uu in “PK mouse 2 mg/kg iv” turned out to be 0.02. Moreover, the clearance in “PK mouse 2 mg/kg iv” stood at 41 mL/min/kg. Further, the “Hepatocyte Cl mouse Scaled Clu” value in the data set “Hepatocyte Cl mouse” stood at 117 mL/min/kg.

As to `COC[C@@H]1C[C@@H](NC(=O)c2ncc(-c3cc(C#N)ccc3OC3CC3)o2)CN1C#N` [Example 2, 5-(5-cyano-2-cyclopropoxyphenyl)-N-((3R,5S)-1-cyano-5-(methoxymethyl)pyrrolidin-3-yl)oxazole-2-carboxamide], in the data set “Turbidimetric solubility”, the solubility was over 100 µM. The EC50 on Endogenous USP30 is 0.003 µM; in data set [3], over 30 µM; in data set [3] (Homo sapiens, HCT-116, 96 h), 27.1 µM. Also, the results for the fraction unbound in [1] and in data set [2] were 0.2 and 0.07, respectively. Further, the logD in “Log D” came to 2.2. Besides, in the data set “Hepatocyte Cl human”, the “Hepatocyte Cl human Scaled Clu” value was determined as 5.0 mL/min/kg. In the data set with TOM20 ubiquitylation, the “TOM20-Ub 1.5-fold gain, Antimycin A/oligomycin mitophagy trigger EC1.5x” value came out at 0.007 µM. The half-maximal inhibitory concentration (IC50) against Cathepsin K is 18.9 µM; on Cathepsin L, 23.6 µM; on UCHL1, over 300 µM; against Cathepsin S, 91.2 µM; against Cathepsin B, over 300 µM. The “Unbound plasma Cmax/TOM20-Ub cell potency” value in “PK mouse 10 mg/kg po” is on record as 140. Further, in the data set “PK mouse 10 mg/kg po”, the “Oral F” value is 47%. Besides, in the data set “PK mouse 2 mg/kg iv”, the Kp uu worked out at 0.01. Moreover, the clearance in “PK mouse 2 mg/kg iv” is 20 mL/min/kg. The “Hepatocyte Cl mouse Scaled Clu” value in the data set “Hepatocyte Cl mouse” was found to be 105 mL/min/kg.

For the origin of these results see patent US20230303547A1, “N-CYANOPYRROLIDINES WITH ACTIVITY AS USP30 INHIBITORS” (MISSION THERAPEUTICS LIMITED, priority 2020, published 2023).
